Legend:
[1] = target: Mitogen-activated protein kinase kinase kinase kinase 1 (Homo sapiens, UniProt Q92918); test: HPK1 Lantha Binding Assay (“Lanth”)
Experimental: (§1) Assay Condition:The following assay concentrations and times were used: 2 nM HPK1, 2 nM Eu-Anti-GST Ab, and 15 nM Tracer222, with 60 min incubation time.HPK Lantha Binding Assay:For the binding assay, 4 ul 2X HPK1 and Eu-anti-GST antibody were added to each well of the assay plate using a Multidrop reagent dispenser. The solutions were incubated in a 23 C incubator for 1 h. To each well of the assay plate was added 4 ul 2× Tracer-222 using a Multidrop reagent dispenser. The solutions were again incubated in a 23 C incubator for 1 h. The results of the assay were read using an Envision plate reader with the following parameters:TR_FRET, 340ex/615 and 665em; 100 usec Delay; and 200 usec integration.

[2] = target: T1, Mitogen-activated protein kinase kinase kinase kinase 1 [T165E,S171E] (Homo sapiens, UniProt Q92918, S171E/T165E); test: HPK1 Lantha Binding Assay (“Lanth”)
T1 construct: gene MAP4K1
Experimental: as §1

Chain of Mitogen-activated protein kinase kinase kinase kinase 1 (Q92918 whole entry): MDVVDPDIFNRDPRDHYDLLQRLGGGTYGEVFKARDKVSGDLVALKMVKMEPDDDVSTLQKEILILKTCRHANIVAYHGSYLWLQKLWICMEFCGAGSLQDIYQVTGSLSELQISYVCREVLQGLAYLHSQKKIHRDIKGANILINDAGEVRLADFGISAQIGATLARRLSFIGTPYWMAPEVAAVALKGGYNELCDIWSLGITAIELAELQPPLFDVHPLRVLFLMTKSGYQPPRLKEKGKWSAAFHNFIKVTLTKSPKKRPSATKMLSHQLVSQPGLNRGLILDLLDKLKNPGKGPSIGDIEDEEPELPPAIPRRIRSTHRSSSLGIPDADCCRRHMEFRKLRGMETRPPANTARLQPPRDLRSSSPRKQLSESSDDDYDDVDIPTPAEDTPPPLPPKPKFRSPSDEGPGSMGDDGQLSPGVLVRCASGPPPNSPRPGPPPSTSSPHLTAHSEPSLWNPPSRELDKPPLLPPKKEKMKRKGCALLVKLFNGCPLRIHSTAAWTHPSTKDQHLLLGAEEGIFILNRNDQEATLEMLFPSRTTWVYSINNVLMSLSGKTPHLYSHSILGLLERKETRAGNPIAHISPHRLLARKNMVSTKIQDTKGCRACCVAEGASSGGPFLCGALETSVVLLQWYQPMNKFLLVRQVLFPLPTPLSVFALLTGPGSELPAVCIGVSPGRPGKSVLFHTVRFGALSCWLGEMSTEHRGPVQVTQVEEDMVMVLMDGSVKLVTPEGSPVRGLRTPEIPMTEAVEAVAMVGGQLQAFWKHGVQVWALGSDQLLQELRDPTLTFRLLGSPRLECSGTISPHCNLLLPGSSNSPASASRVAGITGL
T1 sequence (Q92918 whole entry T165E/S171E, looked up): as the sequence (Q92918 whole entry) above, with T165E, S171E counted along it

| Ki [1] | Ki [2] | Compound |
| --- | --- | --- |
| 6 nM | – | CCc1ccnc(Nc2cc3cc(-c4cnccc4C)ccc3cn2)c1 [US12378249, Compound 105] |
| – | 0.013 nM | Cc1c(N)cncc1-c1cc2cc(Nc3cc4n(n3)CC(=O)N(CCN3CC(O)C3)CC4)ncc2cc1F [US12378249, Compound 165] |

— BindingDB's records for patent US12378249 (Genentech, 2025)
